From patent US10328053B2 (Gilead Sciences, Inc., priority 2016, dated 2019)

How the values were obtained:
[1] = tested on: HBV AD38 viral particles in HepG2 cell line overexpressing NTCP; assay: HBV DNA Quantification Assay; type: cell-based; conditions: Hepatitis B virus, HepG2, 120 h, HBV-infected HepG2-NTCP cells, 5 days incubation, HBV DNA in culture supernatant (QuantiGene 2.0); geometric mean of a minimum of four determinations
How it was run: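 Antiviral EC50 derived by four-parameter dose-response fit and given as geometric mean of at least four runs. Read-out was branched-DNA (QuantiGene 2.0) luminescence for HBV DNA in culture supernatant after 5 days of compound exposure. Cells: HepG2-NTCP infected 4 days beforehand with AD38 particles, 4000 genome equivalents per cell.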

[2] = tested on: pooled cryopreserved hepatocytes; assay: Hepatic Stability Assay (in vitro half-life method); type: in vitro ADME; set-up: dose or concentration left out as unconfirmed; conditions: 37° C., 1×10^6 cells/mL, 0-6 hours, LC-MS/MS, 39.5 hours is the maximum detectable half life
How it was run: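 Pooled cryopreserved hepatocytes (1×10^6 cells/mL) incubated with compound at […] test concentration, 37° C.; samples at 0, 1, 3 and 6 h quantified by LC-MS/MS. Half-life from rate of compound disappearance, scaled to predicted hepatic clearance via well-stirred model.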

CNC(=O)C1(NC(=O)C(=O)c2c(C)c(C(=O)Nc3ccc(F)c(C#N)c3)n3c2CCC3)CC(F)(F)C1 [Example 35, N-(3-cyano-4-fluorophenyl)-7-(2-((3,3-difluoro-1-(methylcarbamoyl)cyclobutyl)amino)-2-oxoacetyl)-6-methyl-2,3-dihydro-1H-pyrrolizine-5-carboxamide]
EC50 [1]: 109 nM
t½ [2]: 39.5 h

CNC(=O)C1(NC(=O)C(=O)c2c(C)c(C(=O)Nc3ccc(F)c(F)c3)n3c2CCC3)CC(F)(F)C1 [Example 44, 7-(2-((3,3-difluoro-1-(methylcarbamoyl)cyclobutyl)amino)-2-oxoacetyl)-N-(3,4-difluorophenyl)-6-methyl-2,3-dihydro-1H-pyrrolizine-5-carboxamide]
EC50 [1]: 31 nM
t½ [2]: 39.5 h

CNC(=O)C1(NC(=O)C(=O)c2c(C)c(C(=O)Nc3ccc(F)c(Cl)c3)n3c2CCC3C)CC(F)(F)C1 (single isomer, unassigned) [Example 23, N-(3-chloro-4-fluorophenyl)-7-(2-((3,3-difluoro-1-(methylcarbamoyl)cyclobutyl)amino)-2-oxoacetyl)-3,6-dimethyl-2,3-dihydro-1H-pyrrolizine-5-carboxamide]
t½ [2]: 9.6 h

Cc1c(C(=O)C(=O)NC2(C)CS(=O)(=O)C2)c2n(c1C(=O)Nc1ccc(F)c(C#N)c1)[C@@H]1C[C@@H]1C2 [Example 72, (1aR,6aR)—N-(3-cyano-4-fluorophenyl)-4-methyl-5-(2-((3-methyl-1,1-dioxidothietan-3-yl)amino)-2-oxoacetyl)-1,1a,6,6a-tetrahydrocyclopropa[b]pyrrolizine-3-carboxamide]
t½ [2]: 39.5 h
